Measured values reported in patent US7786054B2, “Biocide for well stimulation and treatment fluids” (Kemira Chemicals, Inc., priority 2006, dated 2010).
Entries after “also recorded” stand apart in the source; their conditions may differ.

Assays:
[1] = test system: acid producing bacteria (AB); assay: Biocidal effectiveness on acid producing bacteria in spiked frac pond water, serial dilution counts over 180 days with challenges; format: cell-based
Protocol: (§1) In this example, the biocidal effectiveness on sulfate reducing bacteria (SRB) and acid producing bacteria (AB) for biocide formulations containing CB Thione and WB Thione to Glut and THPS was examined.
(§2) A one gallon sample was separated from a five gallon sample of frac pond water for these studies. The frac pond water sample included SRB and AB. Ten mL of a 10^9 cfu/mL inoculum of SRB grown in anaerobic API broth containing an O2 scavenger and 10 mL of a 10^9 cfu/mL inoculum of AB grown in anaerobic phenol red (anPR) broth containing an O2 scavenger were added to the one gallon frac pond water sample, mixed well and allowed to incubate for a period of time sufficient to achieve a desired number of SRB and AB. All broth media for inoculum and serial dilution counts in this study was made at 4% salinity to match the salinity of the original frac pond water measured by total dissolved solids testing. To increase nutrient value and to emulate on-site friction reducing additives, a 30 weight % acrylic acid, 70% acrylamide copolymer was added to the inoculated gallon of frac pond water sample at 300 ppm and then referred to as the spiked frac pond water sample. The spiked sample was then divided into 99.0 g aliquots for testing the effect of various biocides at various concentrations on the SRB and AB over a 180 day contact time. One spiked aliquot would serve as the control sample to which no biocide would be added. Challenges were made to all aliquots using 0.5 mL of 10^8 SRB and 0.5 mL, of 10^8 AB at 14, 28, and 129 days contact time.
(§3) The biocides included a 20% water based Thione (WB Thione), a 24% caustic based Thione (CB Thione), a 25% Glut, and a 35% THPS. Stock biocide solutions of various concentrations were made from these biocides as described below.
(§4) The WB Thione stock solutions were prepared by adding 3.0 g of the biocide to 17.0 g of sterile distilled water to form an intermediate solution, followed by combining each intermediate solution with water in the accounts shown in Table 1 below to make the descending concentrations as shown in Table 1.
as §4, with “The CB” for “The WB”, “the amounts” for “the accounts”, “Table 2” for “Table 1”, “Table 2.” for “Table 1.”
(§5) The Glut stock solutions were prepared by adding 1.0 g biocide to 19.0 g of sterile distilled water to form an intermediate solution, followed by combining each intermediate solution with water in the amounts shown in Table 3 below to make the descending concentrations as shown in Table 3.
(§6) The THPS stock solutions were prepared by adding 1.0 g of the biocide to 19.0 g of sterile distilled water to form an intermediate solution, followed by combining each intermediate solution with water in the amounts shown in Table 4 below to make the descending concentrations as shown in Table 4.
(§7) Next, 1 g of each biocide stock solution was added to the appropriately labeled 99.0 g aliquot. Also, 1.0 g of sterile water was added to the control aliquot. The concentrations of the biocides present in each aliquot are provided below in Table 5.
(§8) The aliquots were then incubated at room temperature in the dark for the entire study, i.e., 6 months. […] Using sterile syringes, this testing was performed by serial diluting the aliquots into sealed 9.0 mL anaerobic API broth and anaerobic PR broth bottles, both media containing an O2 scavenger, in the appropriate labeled set of SRB bottles (6 for each aliquot) mid AB bottles (6 for each aliquot) until a color change occurred, indicating the log quantity of organisms present in each aliquot.

[2] = test system: sulfate reducing bacteria (SRB); assay: Biocidal effectiveness on sulfate reducing bacteria in spiked frac pond water, serial dilution counts over 180 days with challenges; format: cell-based
Protocol: as §1, §2, §3, §4
as §4, with “The CB” for “The WB”, “the amounts” for “the accounts”, “Table 2” for “Table 1”, “Table 2.” for “Table 1.”
as §5, §6, §7, §8

[3] = 500 ppm as is (Glut, THPS), 7 Days
[4] = 500 ppm as is (Glut, THPS), 14 Days
[5] = 500 ppm as is (Glut, THPS), 21 Days
[6] = 500 ppm as is (Glut, THPS), 28 Days
[7] = 500 ppm as is (Glut, THPS), 35 Days
[8] = 500 ppm as is (Glut, THPS), 42 Days
[9] = 500 ppm as is (Glut, THPS), 58 Days
[10] = 500 ppm as is (Glut, THPS), 90 Days
[11] = up to 180 days contact time, challenges at 14, 28 and 129 days

O=S(=O)([O-])[O-].OC[P+](CO)(CO)CO.OC[P+](CO)(CO)CO [THPS, tetra-kis-hydroxymethyly-phosphonium sulfate]
Log 10 Anaerobic Acid Producing Bacteria/mL ([1]; 50 ppm as is, 7 Days): 5 Log 10 Bacteria/mL
Log 10 Anaerobic Acid Producing Bacteria/mL ([1]; 50 ppm as is, 14 Days): ≧6 Log 10 Bacteria/mL
Log 10 Anaerobic Acid Producing Bacteria/mL ([1]; 50 ppm as is, 21 Days): ≧6 Log 10 Bacteria/mL
Log 10 Anaerobic Acid Producing Bacteria/mL ([1]; 50 ppm as is, 28 Days): ≧6 Log 10 Bacteria/mL
Log 10 Anaerobic Acid Producing Bacteria/mL ([1]; 50 ppm as is, 35 Days): ≧6 Log 10 Bacteria/mL
Log 10 Anaerobic Acid Producing Bacteria/mL ([1]; 50 ppm as is, 42 Days): ≧6 Log 10 Bacteria/mL
Log 10 Anaerobic Acid Producing Bacteria/mL ([1]; 50 ppm as is, 58 Days): ≧6 Log 10 Bacteria/mL
Log 10 Anaerobic Acid Producing Bacteria/mL ([1]; 50 ppm as is, 90 Days): ≧6 Log 10 Bacteria/mL
Log 10 Anaerobic Acid Producing Bacteria/mL ([1]; 100 ppm as is, 7 Days): 5 Log 10 Bacteria/mL
Log 10 Anaerobic Acid Producing Bacteria/mL ([1]; 100 ppm as is, 14 Days): 5 Log 10 Bacteria/mL
Log 10 Anaerobic Acid Producing Bacteria/mL ([1]; 100 ppm as is, 21 Days): ≧6 Log 10 Bacteria/mL
Log 10 Anaerobic Acid Producing Bacteria/mL ([1]; 100 ppm as is, 28 Days): ≧6 Log 10 Bacteria/mL
Log 10 Anaerobic Acid Producing Bacteria/mL ([1]; 100 ppm as is, 35 Days): ≧6 Log 10 Bacteria/mL
Log 10 Anaerobic Acid Producing Bacteria/mL ([1]; 100 ppm as is, 42 Days): ≧6 Log 10 Bacteria/mL
Log 10 Anaerobic Acid Producing Bacteria/mL ([1]; 100 ppm as is, 58 Days): ≧6 Log 10 Bacteria/mL
Log 10 Anaerobic Acid Producing Bacteria/mL ([1]; 100 ppm as is, 90 Days): ≧5 Log 10 Bacteria/mL
Log 10 Anaerobic Acid Producing Bacteria/mL ([1]; 200 ppm as is, 7 Days): 1 Log 10 Bacteria/mL
Log 10 Anaerobic Acid Producing Bacteria/mL ([1]; 200 ppm as is, 14 Days): 0 Log 10 Bacteria/mL
Log 10 Anaerobic Acid Producing Bacteria/mL ([1]; 200 ppm as is, 21 Days): ≧6 Log 10 Bacteria/mL
Log 10 Anaerobic Acid Producing Bacteria/mL ([1]; 200 ppm as is, 28 Days): ≧6 Log 10 Bacteria/mL
Log 10 Anaerobic Acid Producing Bacteria/mL ([1]; 200 ppm as is, 35 Days): ≧6 Log 10 Bacteria/mL
Log 10 Anaerobic Acid Producing Bacteria/mL ([1]; 200 ppm as is, 42 Days): ≧6 Log 10 Bacteria/mL
Log 10 Anaerobic Acid Producing Bacteria/mL ([1]; 200 ppm as is, 58 Days): ≧6 Log 10 Bacteria/mL
Log 10 Anaerobic Acid Producing Bacteria/mL ([1]; 200 ppm as is, 90 Days): ≧6 Log 10 Bacteria/mL
Log 10 Anaerobic Acid Producing Bacteria/mL [1, 3]: 0 Log 10 Bacteria/mL
Log 10 Anaerobic Acid Producing Bacteria/mL [1, 4]: 0 Log 10 Bacteria/mL
Log 10 Anaerobic Acid Producing Bacteria/mL [1, 5]: 4 Log 10 Bacteria/mL
Log 10 Anaerobic Acid Producing Bacteria/mL [1, 6]: 3 Log 10 Bacteria/mL
Log 10 Anaerobic Acid Producing Bacteria/mL [1, 7]: 4 Log 10 Bacteria/mL
Log 10 Anaerobic Acid Producing Bacteria/mL [1, 8]: 3 Log 10 Bacteria/mL
Log 10 Anaerobic Acid Producing Bacteria/mL [1, 9]: ≧6 Log 10 Bacteria/mL
Log 10 Anaerobic Acid Producing Bacteria/mL [1, 10]: ≧6 Log 10 Bacteria/mL
control of AB in frac pond water (summary in words) [1, 11]: lost all control of SRB and AB from 1 to 21 days contact time; also recorded: failed after challenging once at 14 days contact time
Log 10 Anaerobic Sulfate Reducing Bacteria/mL ([2]; 60 ppm as is (DA), 7 Days): ≧6 Log 10 Bacteria/mL
Log 10 Anaerobic Sulfate Reducing Bacteria/mL ([2]; 60 ppm as is (DA), 14 Days): ≧6 Log 10 Bacteria/mL
Log 10 Anaerobic Sulfate Reducing Bacteria/mL ([2]; 60 ppm as is (DA), 21 Days): ≧5 Log 10 Bacteria/mL
Log 10 Anaerobic Sulfate Reducing Bacteria/mL ([2]; 60 ppm as is (DA), 28 Days): ≧6 Log 10 Bacteria/mL
Log 10 Anaerobic Sulfate Reducing Bacteria/mL ([2]; 60 ppm as is (DA), 35 Days): ≧6 Log 10 Bacteria/mL
Log 10 Anaerobic Sulfate Reducing Bacteria/mL ([2]; 60 ppm as is (DA), 42 Days): ≧6 Log 10 Bacteria/mL
Log 10 Anaerobic Sulfate Reducing Bacteria/mL ([2]; 60 ppm as is (DA), 58 Days): ≧6 Log 10 Bacteria/mL
Log 10 Anaerobic Sulfate Reducing Bacteria/mL ([2]; 60 ppm as is (DA), 90 Days): ≧6 Log 10 Bacteria/mL
Log 10 Anaerobic Sulfate Reducing Bacteria/mL ([2]; 100 ppm as is, 7 Days): 5 Log 10 Bacteria/mL
Log 10 Anaerobic Sulfate Reducing Bacteria/mL ([2]; 100 ppm as is, 14 Days): 5 Log 10 Bacteria/mL
Log 10 Anaerobic Sulfate Reducing Bacteria/mL ([2]; 100 ppm as is, 21 Days): ≧5 Log 10 Bacteria/mL
Log 10 Anaerobic Sulfate Reducing Bacteria/mL ([2]; 100 ppm as is, 28 Days): ≧6 Log 10 Bacteria/mL
Log 10 Anaerobic Sulfate Reducing Bacteria/mL ([2]; 100 ppm as is, 35 Days): ≧6 Log 10 Bacteria/mL
Log 10 Anaerobic Sulfate Reducing Bacteria/mL ([2]; 100 ppm as is, 42 Days): ≧6 Log 10 Bacteria/mL
Log 10 Anaerobic Sulfate Reducing Bacteria/mL ([2]; 100 ppm as is, 58 Days): ≧6 Log 10 Bacteria/mL
Log 10 Anaerobic Sulfate Reducing Bacteria/mL ([2]; 100 ppm as is, 90 Days): ≧6 Log 10 Bacteria/mL
Log 10 Anaerobic Sulfate Reducing Bacteria/mL ([2]; 200 ppm as is, 7 Days): 0 Log 10 Bacteria/mL
Log 10 Anaerobic Sulfate Reducing Bacteria/mL ([2]; 200 ppm as is, 14 Days): 0 Log 10 Bacteria/mL
Log 10 Anaerobic Sulfate Reducing Bacteria/mL ([2]; 200 ppm as is, 21 Days): ≧6 Log 10 Bacteria/mL
Log 10 Anaerobic Sulfate Reducing Bacteria/mL ([2]; 200 ppm as is, 28 Days): ≧6 Log 10 Bacteria/mL
Log 10 Anaerobic Sulfate Reducing Bacteria/mL ([2]; 200 ppm as is, 35 Days): ≧6 Log 10 Bacteria/mL
Log 10 Anaerobic Sulfate Reducing Bacteria/mL ([2]; 200 ppm as is, 42 Days): ≧6 Log 10 Bacteria/mL
Log 10 Anaerobic Sulfate Reducing Bacteria/mL ([2]; 200 ppm as is, 58 Days): ≧6 Log 10 Bacteria/mL
Log 10 Anaerobic Sulfate Reducing Bacteria/mL ([2]; 200 ppm as is, 90 Days): ≧6 Log 10 Bacteria/mL
Log 10 Anaerobic Sulfate Reducing Bacteria/mL [2, 3]: 0 Log 10 Bacteria/mL
Log 10 Anaerobic Sulfate Reducing Bacteria/mL [2, 4]: 0 Log 10 Bacteria/mL
Log 10 Anaerobic Sulfate Reducing Bacteria/mL [2, 5]: 4 Log 10 Bacteria/mL
Log 10 Anaerobic Sulfate Reducing Bacteria/mL [2, 6]: 3 Log 10 Bacteria/mL
Log 10 Anaerobic Sulfate Reducing Bacteria/mL [2, 7]: 3 Log 10 Bacteria/mL
Log 10 Anaerobic Sulfate Reducing Bacteria/mL [2, 8]: ≧6 Log 10 Bacteria/mL
Log 10 Anaerobic Sulfate Reducing Bacteria/mL [2, 9]: ≧6 Log 10 Bacteria/mL
Log 10 Anaerobic Sulfate Reducing Bacteria/mL [2, 10]: ≧6 Log 10 Bacteria/mL
control of SRB in frac pond water (summary in words) [2, 11]: lost all control of SRB and AB from 1 to 21 days contact time; also recorded: failed completely after challenging once at 14 days contact time at all concentrations
